Reference: PMC5465257, “Evaluation of JNJ-54717793 a Novel Brain Penetrant Selective Orexin 1 Receptor Antagonist in Two Rat Models of Panic Attack Provocation” (Frontiers in Pharmacology, 2017)
Like-named read-outs stand apart in the source and are kept apart here.

Legend:
[1] = Ex vivo OX1R receptor occupancy autoradiography in rat brain (tenia tecta), with plasma bioanalysis; conditions: male, Sprague-Dawley, plasma
Experimental: (§1) Experiments were performed as previously described ([Dugovic et al., 2009]) in male Sprague-Dawley rats (300–400 g, Charles River Laboratories, San Diego, CA, United States). The animals were euthanized using carbon dioxide and decapitated at different time points after drug administration (n = 3 per time point or dose regimen). Brains were rapidly frozen on powdered dry ice and stored at -80°C before sectioning. Plasma samples were also collected for bioanalysis (LC–MS/MS). Twenty micron thick tissue sections at the level of the tenia tecta were prepared for autoradiography. OX1R radioligand binding autoradiography was determined at room temperature with 5 nM [^3H]SB-674042. Sections were incubated for 10 min to minimize dissociation. Non-specific binding was determined in the presence of 10 μM SB-674042. Ex vivo receptor labeling was expressed as the percentage of receptor labeling in corresponding brain areas (i.e., tenia tecta) of vehicle-treated animals. The percentage of receptor occupancy was plotted against time or dosage using GraphPad Prism (GraphPad Software, San Diego, CA, United States). Percentage of receptor occupancy was also plotted against drug plasma or brain concentration. Pharmacokinetic parameters were analyzed using a non-compartmental model using the software package WinNonlin Version 4.0.1 (Pharsight, Palo Alto, CA, United States).
(§2) In vivo occupancy of the OX1R was assessed by ex vivo receptor binding autoradiography of [^3H]SB-674042 in rat brain tissue sections at the level of the tenia tecta. Time-dependency and dose-dependency were assessed after oral dosing (Figure 2).

[2] = target: T1, OX1R in rat brain (tenia tecta) (Rattus norvegicus, UniProt P56718); test: as above
T1 construct: Twenty micron thick tissue sections at the level of the tenia tecta were prepared for autoradiography; from tissue; host or cells: brain sections (tenia tecta) of male Sprague-Dawley rats
T1 sequence (P56718 1-416): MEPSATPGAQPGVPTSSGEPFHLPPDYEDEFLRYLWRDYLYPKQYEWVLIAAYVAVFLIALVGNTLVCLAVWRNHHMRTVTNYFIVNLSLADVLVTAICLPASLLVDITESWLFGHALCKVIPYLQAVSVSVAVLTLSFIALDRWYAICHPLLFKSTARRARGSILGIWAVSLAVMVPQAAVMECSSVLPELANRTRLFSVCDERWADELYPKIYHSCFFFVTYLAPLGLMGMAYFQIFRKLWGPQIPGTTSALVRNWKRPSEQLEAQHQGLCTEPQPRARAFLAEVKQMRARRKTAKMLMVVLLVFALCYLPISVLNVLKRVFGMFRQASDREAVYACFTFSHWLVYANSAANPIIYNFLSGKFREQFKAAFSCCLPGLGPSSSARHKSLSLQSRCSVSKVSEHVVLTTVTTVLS
Experimental: as §1, §2

Sprague-Dawley rats = test: Sodium lactate panic provocation model (1-allyglycine treated rats)
Experimental: Experiments were performed in male Sprague-Dawley rats (300–350 g, Harlan Laboratory, Indianapolis, IN, United States). Prior to and during surgeries, rats were anesthetized with a nose cone connected to an isoflurane system (MGX Research Machine; Vetamic, Rossville, IN, United States). Radiotelemetry probes [Cat. no. HD-S11, Data Sciences International, St. Paul, MN, United States] were surgically implanted into the peritoneal cavity and sutured to the muscle wall in order to assess general motor activity. A pressure transducer was implanted into the femoral artery to assess cardiovascular responses [i.e., mean arterial blood pressure (MAP) and heart rate (HR)]. Rats were also fitted with femoral venous catheters for 0.5 M i.v. sodium lactate (NaLac) infusions, as previously described ([Shekhar et al., 1996]). After 3–5 days of recovery, rats were anesthetized and 26 gauge T-shaped cannulae (Cat. no. 3260PG, Plastics One, Inc., Roanoake, VA, United States) were directed at cardio-excitatory Perifornical hypothalamic area regions [([Shekhar and Keim, 1997]) bregma: 1.2 mm posterior, +2.1 mm lateral, +9.1 mm ventral and adjusted for approaching at a 10° angle toward the midline with the stereotaxic incisor bar elevated 5 mm above the interaural line] and cemented into place. The 22 gauge side arm was then attached, via PE-60 tubing, to an osmotic minipump (prefilled with 1-allyglycine solution chronically infused at 3.5 nmol/0.5 μl per hour) and sutured into place subcutaneously at the nape of the neck (DURECT Corporation, Model no. 2002).
Five days following 1-allyglycine infusion onset, in a counterbalanced design and with 48 h between crossover, rats were orally dosed with either JNJ-54717793 at 3, 10, or 30 mg/kg, or vehicle as a control group 60 min prior to the 15 min 0.5 M sodium lactate challenge. […] The data reported are changes in mean arterial blood pressure, HR, and activity from the average of the baseline (t-5 to t-1) from each rat.
Baseline SI testing was done 7–8 days following radiotelemetry surgery recovery, and repeated again 2–3 days later during drug treatment crossover. On experimental drug testing days, the SI test was performed 5 min after the offset of the sodium lactate challenge with different partners each time. The SI box dimension were 0.9 m long × 0.9 m wide × 0.3 m height. […] All behavioral tests were digitally videorecorded with a camera above the box. The “experimental” rat and an unfamiliar “partner” rat were both allowed to individually habituate to the box for a 5 min period 24 h prior to each SI test. During the SI test, the two rats were placed together in the center of the box, and the total duration (sec) of non-aggressive physical contact (grooming, sniffing, crawling over and under, etc.) initiated by the “experimental” rat is quantified over a 5 min duration. A baseline SI test was performed at least 72 h after i.v. catheterization, but prior to osmotic minipump implantation. Another SI test was performed 5 days following minipump infusions and immediately following saline or sodium lactate infusions. Video recorded sessions were scored at a later time by Stephanie D Fitz, whom was blind to any drug treatment.
Each dependent variable for assessment of behavior and radiotelemetry data was respectively analyzed using a one way ANOVA, or a one way ANOVA with repeated measures with drug treatment as the main factor and time as repeated measures. In the presence of significant main effects post hoc tests were conducted using a parametric Fisher’s LSD test. Within subjects time effects were also assessed using a Dunnett’s one way analysis with the minute prior to the i.v infusion used as the control.

[3] = rats, after sodium lactate challenge

O=C(c1cccc(F)c1-c1ncccn1)N1[C@@H]2CC[C@H]1[C@H](Nc1cnc(C(F)(F)F)cn1)C2 [JNJ-54717793, (1S,2R,4R)-7-([(3-fluoro-2-pyrimidin-2-ylphenyl)carbonyl]-N-[5-(trifluoromethyl)pyrazin-2-yl]-7-azabicyclo[2.2.1]heptan-2-amine)]
concentration at 60 min ([1]; 1.3 mg/kg, oral, 95% confidence interval 26 to 277 ng/ml, read-out: plasma exposure corresponding to ED50): 84 ng/mL | concentration at 60 min ([1]; 3 mg/kg oral, read-out: plasma concentration at plateau of occupancy): ~311 ng/mL | concentration at 15 min ([1]; 30 mg/kg oral, 15 min, read-out: plasma concentration at maximal OX1R occupancy): 3730 ± 440 ng/mL | level of OX1R occupancy ([2]; 30 mg/kg oral, after the first 6 h): negligible | receptor occupancy at 30 mg/kg ([2]; 30 mg/kg oral, first 6 h, read-out: level of OX1R occupancy): > 58% | receptor occupancy at 30 mg/kg ([2]; 30 mg/kg oral, observed at 15 min, read-out: maximal OX1R occupancy): 87 ± 3% | ED50 ([2]; oral, 60 min after treatment): 1.3 mg/kg | receptor occupancy at 3 mg/kg ([2]; oral, reached at 3 mg/kg, 60 min after treatment, read-out: plateau for maximal OX1R occupancy): 80 to 90% | sodium lactate-induced pressor response (MAP) (Sprague-Dawley rats; rats, 10 mg/kg p.o., t3 timepoint, no overall treatment effect): attenuation of pressor response | sodium lactate-induced tachycardia (HR) (Sprague-Dawley rats; rats, 3, 10, 30 mg/kg p.o., compared to vehicle): did not attenuate | locomotion (Sprague-Dawley rats; rats, 3, 10, 30 mg/kg p.o., sodium lactate did not increase locomotion): did not significantly alter | center or middle times in the open field test (Sprague-Dawley rats; [3]): Nor was there an effect | sedative effects (line crossings) in the open field test (Sprague-Dawley rats; [3]): no apparent sedative effects | sodium lactate-induced anxiety behavior in the SI test (Sprague-Dawley rats; rats, highest dose (30 mg/kg p.o.)): attenuate/block
